Results published in patent publication US9593149B2, “Amylin and calcitonin receptor agonist” (Novo Nordisk A/S, priority 2014, dated 2017).
Numbered stars: 1 amine (or outer) side, 2 acyl side, 3 side chain; on linkers, the order of the positions; unused ones are H or OH. Peptide text beside a SMILES is read from it. * marks the point of attachment. C18 diacid = O=C(O)CCCCCCCCCCCCCCCCC(=O)*; C16 diacid = O=C(O)CCCCCCCCCCCCCCC(=O)*; γGlu = O=C(O)[C@H](CCC(=O)[*:2])N[*:1]; C14 diacid = O=C(O)CCCCCCCCCCCCC(=O)*

Columns and labels:
[1] = molecular target: T1, human calcitonin (a) receptor, BHK570 cells (Homo sapiens, UniProt P30988); assay: Assay (II)a functional CRE-luciferase assay with albumin, human calcitonin receptor; type: cell-based; conditions: Tested with HSA; read-out: hCTR funct. EC50
T1 construct: host or cells: BHK570
T1 sequence (P30988 25-474): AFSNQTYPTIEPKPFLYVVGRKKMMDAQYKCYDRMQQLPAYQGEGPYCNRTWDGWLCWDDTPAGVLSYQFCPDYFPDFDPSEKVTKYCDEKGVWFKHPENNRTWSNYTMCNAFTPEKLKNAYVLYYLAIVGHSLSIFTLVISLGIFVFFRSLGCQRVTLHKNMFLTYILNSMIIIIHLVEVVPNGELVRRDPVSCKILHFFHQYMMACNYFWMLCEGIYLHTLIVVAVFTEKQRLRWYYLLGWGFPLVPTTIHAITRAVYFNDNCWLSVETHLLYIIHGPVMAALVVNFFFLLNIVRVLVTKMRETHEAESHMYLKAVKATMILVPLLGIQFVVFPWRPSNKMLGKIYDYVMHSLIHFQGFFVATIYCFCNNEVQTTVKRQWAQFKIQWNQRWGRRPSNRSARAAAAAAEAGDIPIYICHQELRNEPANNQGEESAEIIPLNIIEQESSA
Source text: (§1) Assay(II)a—Human Calcitonin and Amylin Receptor Assay
(§2) 1. Luciferase Assay Outline
(§3) Activation of calcitonin and amylin (co-expression of calcitonin receptor and receptor activity modifying proteins (RAMP)) receptors lead to increased intracellular concentrations of cAMP. Consequently, transcription is activated by promoters containing multiple copies of the cAMP response element (CRE). It is thus possible to measure amylin activity by the use of a CRE luciferase reporter gene introduced into BHK cells also expressing calcitonin or amylin receptors.
(§4) 2. Construction of Calcitonin (a)—and Amylin 3(a)—Receptor/CRE-Luc Cell Line.
(§5) A BHK570 cell line was stably transfected with the human calcitonin receptor and a CRE-responsive luciferase reporter gene. The cell line was further transfected with RAMP-3, using standard methods. This turns the calcitonin receptor into an amylin 3(a) receptor. Methotrexate, Neomycin, and Hygromycin are selection markers for luciferase, the calcitonin receptor, and RAMP-3, respectively.
(§6) To perform activity assays, BHK calcitonin (a) receptor- or amylin 3(a)-receptor/CRE-luc cells were seeded in white 96 well culture plates at a density of about 20.000 cells/well. […] After incubation overnight at 37° C. and 5% CO2, the growth medium was replaced by 50 μl/well assay medium (DMEM (without phenol red), Glutamax™, 10% FBS, and 10 mM Hepes, pH 7.4). Further, 50 μl/well of standard or sample in assay buffer were added.
(§7) After 3 hours incubation at 37° C. and 5% CO2, the assay medium with standard or sample were removed and replaced by 100 μl/well PBS. Further, 100 μl/well LucLite™ was added. The plates were sealed and incubated at room temperature for 30 minutes. Finally, luminescence was tested on a TopCounter (Packard) in SPC (single photon counting) mode.

[2] = Assay (IV) determination of solubility; type: physicochemical
Description: Assay (IV)—Determination of Solubility
The mimylin peptide was dissolved in water at ˜500 nmol/ml and mixed 1:1 with a series of buffers (100 mM glycylglycine pH 3.0, 100 mM glycylglycine pH 4.0, 100 mM glycylglycine pH 5.0, 100 mM bistrispropane pH 6.0, 100 mM bistrispropane pH 6.5, 100 mM bistrispropane pH 7.0, 100 mM bistrispropane pH 7.5, 100 mM bistrispropane pH 8.0).

[3] = molecular target: T2, human amylin 3(a) receptor (human calcitonin receptor + RAMP-3), BHK570 cells (Homo sapiens, UniProt O60896+P30988); assay: Assay (II)a functional CRE-luciferase assay with albumin, human amylin receptor; type: cell-based; conditions: Tested with HSA; read-out: hAmylin-R funct. EC50
T2 construct: host or cells: BHK570
Source text: as §1, §2, §3, §4, §5, §6, §7

[4] = molecular target: T2, human amylin 3(a) receptor (human calcitonin receptor + RAMP-3), BHK570 cells; assay: Assay (II)b functional CRE-luciferase assay without albumin, human amylin receptor; type: cell-based; conditions: Tested without HSA; read-out: hAmylin-R funct. EC50
How it was run: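 Agonism measured as CRE-driven luciferase luminescence after 3 h sample exposure at 37 °C, without albumin (0.1% ovalbumin, Hepes pH 7.4 medium). Reporter cells: BHK570 carrying human calcitonin receptor, co-transfected with RAMP-3 to form the amylin 3(a) receptor.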

[5] = molecular target: T1, human calcitonin (a) receptor, BHK570 cells; assay: Assay (II)b functional CRE-luciferase assay without albumin, human calcitonin receptor; type: cell-based; conditions: Tested without HSA; read-out: hCTR funct. EC50
How it was run: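 BHK570 cells stably expressing human calcitonin receptor with CRE-luciferase reporter, plus RAMP-3 for the amylin 3(a) line. Cells stimulated 3 hours at 37 °C in albumin-free assay medium (0.1% ovalbumin, 10 mM Hepes pH 7.4); cAMP-driven luciferase read by luminescence.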

[6] = Assay (IX) pK, T½ in mini-pig; type: in vivo, Göttingen mini-pigs; conditions: i.v.
How it was run: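 Female Göttingen mini-pigs (5–12 months, 15–35 kg, fed freely) received a single i.v. dose of approximately 5 nmol/kg via central venous catheter, typically n=3. Plasma was sampled from pre-dose to 240 h (sometimes 288 h) and quantified by LC-MS. T½ was derived by non-compartmental analysis from the terminal log-linear slope (ln2/λz).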

Assay (X) pK, T½ in rat = type: in vivo, Sprague Dawley rats; conditions: for PK rat iv T½: i.v.; for PK rat sc T½: s.c.
Description: Assay (X)—pK—Determination of T½ in Rat
Pharmacokinetic (PK) studies rats were conducted in order to determine the T½ of mimylin peptide after i.v. and s.c. administration.
T½ values of the mimylin derivates of the invention is determined by pharmacokinetic studies in Sprague Dawley male rats, from Taconic Europe and the principles of laboratory animal care are followed.
An acclimatisation period of approximately 7 days was allowed before the animals entered the study. At start of the acclimatisation period the rats were in the weight range of 250-400 g.
The studies were conducted in an animal room which was illuminated to give a cycle of approximately 12 hours light and 12 hours darkness. The animals were group housed and had food and water ad lib. The animals were weighed on the days of dosing.
In the present studies the test substances were administered subcutaneously or intravenously in approximately 20 nmol/kg dose. The animals received a single subcutaneous injection to the neck for subtaneous administration or directly into the tail vein for intravenous administration. Each test substance was given to typically three but in some cases two or four animals.
A full plasma concentration-time profile, employing 8-10 sampling points, was obtained from each animal. In example blood samples were collected according to the following schedule: After subcutaneous or intravenous administration:
At each sampling time, 0.08 to 0.10 ml of blood was drawn from each animal. The blood samples were taken in the sublingual vein via venous puncture and the use of a capillary tube.
The blood samples were stabilised with EDTA. Blood samples were kept on ice for max 20 min. before centrifugation. Plasma was separated using centrifugation (i.e. at 4° C., 10 min., 1500G) and was immediately transferred to Micronic tubes or PCR plates. Approximately 40 μl plasma was transferred and was stored at −20° C. until assayed. The plasma samples were assayed for the content of mimylin compound by LCMS
The plasma concentration-time profiles were analysed by a non-compartmental pharmacokinetic analysis (NCA) using Phoenix WinNonlin 6.3 (Pharsight Inc., Mountain View, Calif., USA). NCA was performed using the individual plasma concentration-time profiles from each animal. T½ is the terminal half-life=In2/λz and was determined from λz, the first order rate constant associated with the terminal (log-linear) portion of the curve, estimated by linear regression of time vs. log concentration.

T2 sequence (O60896 24-148, one chain of several): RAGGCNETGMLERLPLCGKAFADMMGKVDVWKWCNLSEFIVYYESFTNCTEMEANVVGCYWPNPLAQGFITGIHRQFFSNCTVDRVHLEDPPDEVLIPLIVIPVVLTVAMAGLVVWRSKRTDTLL

Solubility ([2]; pH 3.0)	Solubility ([2]; pH 4.0)	Solubility ([2]; pH 5.0)	Solubility ([2]; pH 6.0)	Solubility ([2]; pH 6.5)	Solubility ([2]; pH 7.0)	Solubility ([2]; pH 7.5)	Solubility ([2]; pH 8.0)	PK mini pig iv T½ [6]	PK rat iv T½ (Assay (X) pK, T½ in rat)	PK rat sc T½ (Assay (X) pK, T½ in rat)	SMILES	further results
											CC(C)C[C@H](NC(=O)[C@H](C)NC(=O)[C@H](C)NC(=O)[C@@H](NC(=O)[C@H](CO)NC(=O)[C@H](CC(C)C)NC(=O)[C@H](CCC(=O)O)NC(=O)[C@H](CO)NC(=O)[C@H](C)NC(=O)CC[C@H](NC(=O)CCCCCCCCCCCCCCCCC(=O)O)C(=O)O)[C@@H](C)O)C(=O)NCC(=O)N[C@@H](CCCNC(=N)N)C(=O)N[C@@H](CC(C)C)C(=O)N[C@@H](CO)C(=O)N[C@@H](C)C(=O)N[C@@H](CCC(=O)O)C(=O)N[C@@H](CC(C)C)C(=O)N[C@@H](Cc1c[nH]cn1)C(=O)N[C@@H](CCC(=O)O)C(=O)N[C@@H](CC(C)C)C(=O)N[C@@H](C)C(=O)N[C@H](C(=O)N[C@@H](Cc1ccc(O)cc1)C(=O)N1CCC[C@H]1C(=O)N[C@@H](CCCNC(=N)N)C(=O)N[C@H](C(=O)N[C@@H](CCC(=O)O)C(=O)N[C@H](C(=O)NCC(=O)N[C@@H](CO)C(=O)NCC(=O)N[C@@H](CO)C(=O)N1CCC[C@H]1C(N)=O)[C@@H](C)O)[C@@H](C)O)[C@@H](C)O [compound 58, [N-terminal(C18 diacid-gGlu), des1, 23Y, 30S, 31G]mimylin] ({C18 diacid-γGlu}-ASELSTAALGRLSAELHELATYPRTETGSGSP-NH2)	EC50 [1]: 0.015 nM; solubility at 18 h ([2]; bistrispropane buffer, pH 6.5): ≥ 200 µM; solubility at 18 h ([2]; bistrispropane buffer, pH 7.5): ≥ 200 µM; solubility at 18 h ([2]; bistrispropane buffer, pH 6.0): ≥ 200 µM; solubility at 18 h ([2]; bistrispropane buffer, pH 7.0): ≥ 200 µM; solubility at 18 h ([2]; bistrispropane buffer, pH 8.0): ≥ 200 µM; solubility at 18 h ([2]; glycylglycine buffer, pH 3.0): ≥ 200 µM; solubility at 18 h ([2]; glycylglycine buffer, pH 4.0): ≥ 200 µM; solubility at 18 h ([2]; glycylglycine buffer, pH 5.0): ≥ 200 µM; EC50 [3]: 0.024 nM; EC50 [4]: 0.01 nM; EC50 [5]: 0.01 nM
≧200 μM	≧200 μM	≧200 μM	≧200 μM	≧200 μM	≧200 μM	≧200 μM	≧200 μM	2 h	3 h	3 h	CC(C)C[C@H](NC(=O)[C@H](C)NC(=O)[C@H](C)NC(=O)[C@@H](NC(=O)[C@H](CO)NC(=O)[C@H](CC(C)C)NC(=O)[C@H](CCC(=O)O)NC(=O)[C@H](CO)NC(=O)[C@H](C)NC(=O)[C@H](CCC(=O)O)NC(=O)CCCCCCCCCCCCC(=O)O)[C@@H](C)O)C(=O)NCC(=O)N[C@@H](CCCNC(=N)N)C(=O)N[C@@H](CC(C)C)C(=O)N[C@@H](CO)C(=O)N[C@@H](C)C(=O)N[C@@H](CCC(=O)O)C(=O)N[C@@H](CC(C)C)C(=O)N[C@@H](Cc1cnc[nH]1)C(=O)N[C@@H](CCC(=O)O)C(=O)N[C@@H](CC(C)C)C(=O)N[C@@H](C)C(=O)N[C@H](C(=O)N[C@@H](CC(C)C)C(=O)N1CCC[C@H]1C(=O)N[C@@H](CCCNC(=N)N)C(=O)N[C@H](C(=O)N[C@@H](CCC(=O)O)C(=O)N[C@H](C(=O)NCC(=O)N1CCC[C@H]1C(=O)N[C@@H](CCC(=O)O)C(=O)N[C@@H](CO)C(=O)N1CCC[C@H]1C(N)=O)[C@@H](C)O)[C@@H](C)O)[C@@H](C)O [Ex. #4, [N-terminal(C14 diacid)]mimylin] ({C14 diacid}-EASELSTAALGRLSAELHELATLPRTETGPESP-NH2)	
≧200 μM	≧200 μM	≧200 μM	≧200 μM	≧200 μM	≧200 μM	≧200 μM	≧200 μM	17 h	3 h	3 h	CC(C)C[C@H](NC(=O)[C@H](C)NC(=O)[C@H](C)NC(=O)[C@@H](NC(=O)[C@H](CO)NC(=O)[C@H](CC(C)C)NC(=O)[C@H](CCC(=O)O)NC(=O)[C@H](CO)NC(=O)[C@H](C)NC(=O)[C@H](CCC(=O)O)NC(=O)CCCCCCCCCCCCCCC(=O)O)[C@@H](C)O)C(=O)NCC(=O)N[C@@H](CCCNC(=N)N)C(=O)N[C@@H](CC(C)C)C(=O)N[C@@H](CO)C(=O)N[C@@H](C)C(=O)N[C@@H](CCC(=O)O)C(=O)N[C@@H](CC(C)C)C(=O)N[C@@H](Cc1cnc[nH]1)C(=O)N[C@@H](CCC(=O)O)C(=O)N[C@@H](CC(C)C)C(=O)N[C@@H](C)C(=O)N[C@H](C(=O)N[C@@H](CC(C)C)C(=O)N1CCC[C@H]1C(=O)N[C@@H](CCCNC(=N)N)C(=O)N[C@H](C(=O)N[C@@H](CCC(=O)O)C(=O)N[C@H](C(=O)NCC(=O)N1CCC[C@H]1C(=O)N[C@@H](CCC(=O)O)C(=O)N[C@@H](CO)C(=O)N1CCC[C@H]1C(N)=O)[C@@H](C)O)[C@@H](C)O)[C@@H](C)O [compound 3, [N-terminal(C16 diacid)]mimylin] ({C16 diacid}-EASELSTAALGRLSAELHELATLPRTETGPESP-NH2)	
